Legend:
[1] = Conjugates of T4 and T3 in patients' urine by enzymatic hydrolysis and IMx measurement; set-up: species or system human
Procedure: Thyroxine glucuronidate in urine was hydrolysed with Sigma bacterial β-glucuronidase. The time interval for hydrolysis was tested from 1 to 24 hours under the conditions recommended by Sigma. It was also hydrolyzed by 0.2 N hydrochloric acid at pH 2 over a period of less than one hour.
Bacterial sulfatase (Sigma) was used as directed. […] To confirm our data, triodothyronine sulfate was synthesized by methods of Levitz (personal communication) for radioactive estrone glucuronide.

[2] = Stability of synthesized T3-sulfate; format: physicochemical; conditions: when not stored in liquid form in appropriate buffer
From the text: Bacterial sulfatase (Sigma) was used as directed. We found little evidence of the presence of thyroxine sulfate in urine in our preliminary studies but significant levels of triiodothyronine-sulfate were present. To confirm our data, triodothyronine sulfate was synthesized by methods of Levitz (personal communication) for radioactive estrone glucuronide. T3-sulfate gave a unique spectrum with a major absorption maximum at 362 nm as compared to triiodothyronine whose major absorption maxima occurred at 318.

[3] = in vivo; cited from earlier work
[4] = Stability of urine standard sub-pools measured monthly; format: physicochemical; conditions: 2 ml vials stored at -20 degrees Centigrade
Procedure: These sub-pools were aliquoted into 2 ml vials and stored as above.

[5] = Stability of urinary T3 for time and temperature; format: physicochemical
[6] = stored with at least 20% (v/v) of buffer

## N[C@@H](Cc1cc(I)c(Oc2ccc(OS(=O)(=O)O)c(I)c2)c(I)c1)C(=O)O [T3-sulfate, triiodothyronine-sulfate]
[1]; human urine, before and after hydrolysis
  urinary concentration of conjugate relative to parent compound: about one-third to one-half
[2]
  stability of T3-sulfate: unstable and rapidly deteriorated

## NC(Cc1cc(I)c(Oc2cc(I)c(O)c(I)c2)c(I)c1)C(=O)O (centres unmarked) [T4, O-(4-hydroxy-3,5-didiodophenyl)-3,5-diiodotyrosine]
[1]
  form of conjugation in urine: almost exclusively as a glucuronide
[3]
  metabolic clearance rate: 1.2 L/d/70 kg

## N[C@@H](Cc1cc(I)c(Oc2ccc(O)c(I)c2)c(I)c1)C(=O)O [T3, O-(4-hydroxy-3-iodophenyl)-3,5-diiodo-L-tyrosine]
[4]
  concentration in urine standard sub-pools over time: unchanged for over a year
[3]
  metabolic clearance rate: 24 L/d/70 kg
[5]; all conditions of time and temperature
  stability of T3 standards: stable under all conditions
[5]; [6]
  stability of urinary T3, frozen state: stable for months
  stability of urinary T3, room temperature: over 3 days
[5]; without buffer, frozen and room temperature
  stability of urinary T3, native state: deteriorated in both environments at an accelerated rate

## N[C@@H](Cc1ccc(Oc2cc(I)c(O)c(I)c2)c(I)c1)C(=O)O [RT3]
[3]
  metabolic clearance rate: 111 L/d/70 kg

Reference: patent US20020076827A1, “Methods for diagnosing thyroid conditions and for monitoring thyroxine therapy” (priority 2000, published 2002)
